Reference: ChEMBL document CHEMBL5380833 (J Med Chem, 2023)
The source made the active and inactive calls. The calls are words filed in the database; no cut-off is given here.

Experiments:
[1] = biological target: T1, Protein cereblon/Tyrosine-protein kinase ITK/TSK (Homo sapiens, UniProt Q08881+Q96SW2); experiment: PROTAC activity at CRBN/ITK in human Jurkat cells assessed as induction of ITK degradation at 100 nM pretreated with proteosome inhibitor carfilzomib for 1 hr followed by compound addition and measured after 2 hrs by Western blot analysis; format: cell-based
Target sequence in this assay (Q08881 whole entry, looked up): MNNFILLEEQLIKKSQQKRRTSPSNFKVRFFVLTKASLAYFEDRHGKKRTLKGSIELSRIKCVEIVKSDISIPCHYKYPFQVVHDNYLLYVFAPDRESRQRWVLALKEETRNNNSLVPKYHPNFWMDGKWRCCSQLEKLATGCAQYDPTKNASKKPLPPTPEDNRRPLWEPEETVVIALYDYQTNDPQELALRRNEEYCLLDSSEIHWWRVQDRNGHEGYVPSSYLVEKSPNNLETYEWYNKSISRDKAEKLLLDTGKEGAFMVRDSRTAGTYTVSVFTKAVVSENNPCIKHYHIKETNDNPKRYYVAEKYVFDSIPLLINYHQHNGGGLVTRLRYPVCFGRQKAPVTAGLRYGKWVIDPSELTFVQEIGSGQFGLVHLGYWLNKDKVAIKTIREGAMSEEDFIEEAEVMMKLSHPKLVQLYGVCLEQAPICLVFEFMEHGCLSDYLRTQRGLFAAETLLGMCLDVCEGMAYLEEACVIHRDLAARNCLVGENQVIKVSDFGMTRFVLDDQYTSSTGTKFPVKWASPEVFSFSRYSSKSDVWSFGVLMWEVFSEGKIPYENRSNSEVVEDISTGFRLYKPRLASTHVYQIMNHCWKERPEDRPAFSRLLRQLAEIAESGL
Target sequence in this assay (Q96SW2 whole entry, looked up): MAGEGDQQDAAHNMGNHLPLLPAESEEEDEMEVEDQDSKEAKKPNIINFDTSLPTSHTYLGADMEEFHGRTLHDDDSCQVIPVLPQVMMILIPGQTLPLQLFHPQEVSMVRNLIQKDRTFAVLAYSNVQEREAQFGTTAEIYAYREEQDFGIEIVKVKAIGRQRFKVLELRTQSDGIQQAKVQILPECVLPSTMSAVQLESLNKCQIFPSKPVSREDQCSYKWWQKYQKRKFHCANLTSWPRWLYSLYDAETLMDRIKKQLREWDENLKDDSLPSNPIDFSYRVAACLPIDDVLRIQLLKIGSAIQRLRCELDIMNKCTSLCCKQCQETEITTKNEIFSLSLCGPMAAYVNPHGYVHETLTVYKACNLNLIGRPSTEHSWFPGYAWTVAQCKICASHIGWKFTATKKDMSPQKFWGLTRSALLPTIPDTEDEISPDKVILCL

[2] = biological target: Tyrosine-protein kinase Tec (Homo sapiens) (UniProt P42680); experiment: Induction of degradation of TEC in human Jurkat cells at 0.01 to 10 uM by immunoblotting analysis; conditions: dose 0.01-10 µM
[3] = Toxicity in Balb/c mouse assessed as side effects at 5 mg/kg, iv measured upto 24 hrs by LC-MS/MS analysis; format: organism-based; conditions: in vivo
[4] = biological target: T1, Protein cereblon/Tyrosine-protein kinase ITK/TSK; experiment: PROTAC activity at CRBN/ITK in human Jurkat cells assessed as induction of ITK degradation by Western blot analysis; format: cell-based; conditions: read-out: EC50
Target sequence in this assay (Q08881 whole entry): as the sequence (Q08881 whole entry, looked up) above
Target sequence in this assay (Q96SW2 whole entry): as the sequence (Q96SW2 whole entry, looked up) above

[5] = biological target: T1, Protein cereblon/Tyrosine-protein kinase ITK/TSK; experiment: PROTAC activity at CRBN/ITK in human Jurkat cells assessed as […] ITK degradation at 300 nM incubated for 8 hrs by tandem mass tag quantitative proteomic analysis; format: cell-based
Target sequence in this assay (Q08881 whole entry, looked up): as the sequence (Q08881 whole entry, looked up) above
Target sequence in this assay (Q96SW2 whole entry, looked up): as the sequence (Q96SW2 whole entry, looked up) above

Jurkat [6] = experiment: Induction of degradation of RSK in human Jurkat cells at 0.01 to 10 uM by immunoblotting analysis; format: cell-based; conditions: dose 0.01-10 µM
[7] = MRT last in Balb/c mouse at 10 mg/kg, ip measured upto 24 hrs by LC-MS/MS analysis; format: ADME, organism-based; conditions: in vivo
[8] = Volume of distribution at steady state in Balb/c mouse at 5 mg/kg, iv measured upto 24 hrs by LC-MS/MS analysis; format: ADME, organism-based; conditions: in vivo, read-out: Vdss
Interleukin-2 = Interleukin-2 (Homo sapiens, UniProt P60568); experiment: Inhibition of IL-2 in human Jurkat cells pretreated with compound for 4 hrs followed by anti-CD3/CD28 stimulation by ELISA analysis; format: cell-based
[9] = AUC (0 to t) in Balb/c mouse at 5 mg/kg, iv measured upto 24 hrs by LC-MS/MS analysis; format: ADME, organism-based; design: dose 5 mg/kg, time < 24 hrs, route iv; conditions: in vivo
[10] = biological target: T1, Protein cereblon/Tyrosine-protein kinase ITK/TSK; experiment: PROTAC activity at CRBN/ITK in human Jurkat cells assessed as residual activity at 10 uM incubated for 16 hrs relative to control; format: cell-based
Target sequence in this assay (Q08881 whole entry, looked up): as the sequence (Q08881 whole entry, looked up) above
Target sequence in this assay (Q96SW2 whole entry, looked up): as the sequence (Q96SW2 whole entry, looked up) above

Jurkat [11] = experiment: Inhibition of TCR signalling in human Jurkat cells assessed as reduction in ERK(T202/Y204) phosphorylation preincubated with cells for 12 hrs followed by anti-CD-2 antibody stimulation for 5 mins by Western blot analysis; format: cell-based; conditions: dose 0.01-3 µM
[12] = Volume of distribution at steady state in Balb/c mouse at 10 mg/kg, ip measured upto 24 hrs by LC-MS/MS analysis; format: ADME, organism-based; conditions: in vivo
[13] = AUC (0 to infinity) in Balb/c mouse at 10 mg/kg, ip measured upto 24 hrs by LC-MS/MS analysis; format: ADME, organism-based; design: dose 10 mg/kg, time < 24 hrs, route ip; conditions: in vivo
[14] = biological target: T1, Protein cereblon/Tyrosine-protein kinase ITK/TSK; experiment: PROTAC activity at CRBN/ITK in human Jurkat cells assessed as induction of ITK degradation at 100 nM pretreated with MLN4924 for 1 hr followed by compound addition and measured after 2 hrs by Western blot analysis; format: cell-based
Target sequence in this assay (Q08881 whole entry, looked up): as the sequence (Q08881 whole entry, looked up) above
Target sequence in this assay (Q96SW2 whole entry, looked up): as the sequence (Q96SW2 whole entry, looked up) above

[15] = biological target: T2, Cytoplasmic tyrosine-protein kinase BMX (Homo sapiens) (UniProt P51813); experiment: Induction of degradation of BMX in human Jurkat cells at 0.01 to 10 uM by immunoblotting analysis; format: cell-based; conditions: dose 0.01-10 µM
T2 sequence (whole entry): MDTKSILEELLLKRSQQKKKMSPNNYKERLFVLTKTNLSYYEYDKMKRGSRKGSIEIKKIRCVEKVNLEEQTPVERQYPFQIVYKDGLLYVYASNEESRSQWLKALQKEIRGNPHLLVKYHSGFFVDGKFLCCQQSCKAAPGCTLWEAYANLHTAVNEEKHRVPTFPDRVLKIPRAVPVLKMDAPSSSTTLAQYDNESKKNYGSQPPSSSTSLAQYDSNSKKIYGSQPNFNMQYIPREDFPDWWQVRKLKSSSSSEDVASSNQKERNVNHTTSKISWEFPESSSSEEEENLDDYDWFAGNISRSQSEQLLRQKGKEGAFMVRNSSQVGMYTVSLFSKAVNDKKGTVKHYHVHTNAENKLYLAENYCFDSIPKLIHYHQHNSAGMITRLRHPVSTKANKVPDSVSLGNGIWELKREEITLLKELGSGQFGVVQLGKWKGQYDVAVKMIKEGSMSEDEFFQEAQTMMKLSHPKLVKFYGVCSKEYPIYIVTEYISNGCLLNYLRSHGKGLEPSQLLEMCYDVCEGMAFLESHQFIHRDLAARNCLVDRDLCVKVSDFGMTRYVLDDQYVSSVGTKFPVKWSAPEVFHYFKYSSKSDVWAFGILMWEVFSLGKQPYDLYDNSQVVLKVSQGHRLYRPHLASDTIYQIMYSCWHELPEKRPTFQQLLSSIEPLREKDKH

[16] = biological target: T3, Tyrosine-protein kinase TXK (Homo sapiens) (UniProt P42681); experiment: Induction of degradation of RLK in human Jurkat cells at 0.01 to 10 uM by immunoblotting analysis; format: cell-based; conditions: dose 0.01-10 µM
T3 sequence (whole entry): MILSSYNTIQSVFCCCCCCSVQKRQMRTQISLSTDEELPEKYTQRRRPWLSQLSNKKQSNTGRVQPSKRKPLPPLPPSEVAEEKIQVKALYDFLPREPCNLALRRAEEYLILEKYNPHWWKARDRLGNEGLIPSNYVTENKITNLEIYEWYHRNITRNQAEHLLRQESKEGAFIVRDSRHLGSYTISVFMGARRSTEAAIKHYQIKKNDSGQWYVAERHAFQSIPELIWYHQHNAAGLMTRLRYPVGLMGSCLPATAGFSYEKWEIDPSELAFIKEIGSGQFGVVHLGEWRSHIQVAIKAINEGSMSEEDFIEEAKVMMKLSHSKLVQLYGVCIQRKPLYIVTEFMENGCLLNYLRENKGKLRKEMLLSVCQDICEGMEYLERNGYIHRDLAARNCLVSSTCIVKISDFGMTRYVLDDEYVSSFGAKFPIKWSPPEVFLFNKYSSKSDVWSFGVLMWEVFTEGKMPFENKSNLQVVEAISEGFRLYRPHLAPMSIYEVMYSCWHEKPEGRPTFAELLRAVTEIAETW

Sequence of Tyrosine-protein kinase Tec (Homo sapiens) (P42680 whole entry, looked up): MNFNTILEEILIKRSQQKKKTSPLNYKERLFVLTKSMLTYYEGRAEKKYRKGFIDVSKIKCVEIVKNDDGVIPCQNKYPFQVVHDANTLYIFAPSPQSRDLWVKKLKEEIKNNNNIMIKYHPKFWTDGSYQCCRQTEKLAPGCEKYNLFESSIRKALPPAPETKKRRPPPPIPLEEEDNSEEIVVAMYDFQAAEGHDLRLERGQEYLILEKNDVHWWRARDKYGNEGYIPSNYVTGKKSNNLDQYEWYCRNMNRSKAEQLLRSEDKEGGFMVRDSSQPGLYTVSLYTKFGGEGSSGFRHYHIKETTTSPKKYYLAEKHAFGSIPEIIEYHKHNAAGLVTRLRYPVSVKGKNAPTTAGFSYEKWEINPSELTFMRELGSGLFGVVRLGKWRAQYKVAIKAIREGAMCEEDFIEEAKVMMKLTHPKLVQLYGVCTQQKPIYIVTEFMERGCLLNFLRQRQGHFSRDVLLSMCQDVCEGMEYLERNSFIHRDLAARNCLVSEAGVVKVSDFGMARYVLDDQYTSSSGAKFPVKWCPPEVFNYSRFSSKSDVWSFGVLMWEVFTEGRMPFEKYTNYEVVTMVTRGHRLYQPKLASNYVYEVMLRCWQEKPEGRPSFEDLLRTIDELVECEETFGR
Sequence of Interleukin-2 (P60568 whole entry): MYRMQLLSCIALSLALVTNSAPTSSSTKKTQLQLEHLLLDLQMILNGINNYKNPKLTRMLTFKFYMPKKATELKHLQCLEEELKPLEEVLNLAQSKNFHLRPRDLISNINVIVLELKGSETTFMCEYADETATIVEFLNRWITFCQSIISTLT

For CN(CCCCCC(=O)Nc1ccc2c(c1)C(=O)N(C1CCC(=O)NC1=O)C2=O)CC[C@@H](c1ccccc1)n1cc(NC(=O)c2n[nH]c3c2CCC(C)(C)C3)cn1.O=C(O)C(F)(F)F (some centres not stated), the Activity [1] was “inactive”, the Activity [2] was “inactive” and the Activity [3] was “Non-Toxic”. The EC50 [4] was 7 nM, the Activity [5] was “Active” and the Activity (Jurkat [6]) was “inactive”. For the same molecule, the MRT last at 24 h [7] was 1.06 h, the Vd [8] was 12.9 L/kg and the EC50 (Interleukin-2) was 25.3 nM. The AUC(0-t) at 24 h [9] was 1080 ng·h/mL, the Activity [10] was 12% and the inhibition (Jurkat [11]) was “Dose-Dependent Effect”. For the same molecule, the Vdss [12] was 18.4 L/kg, the AUC(0-inf) [13] was 1590 ng·h/mL and the Activity [14] was “inactive”. For the same molecule, the Activity [15] was “inactive” and the Activity [16] was “inactive”.
